Measurements published in US12344597B2, “Alkoxy-substituted pyridinyl derivatives as LPA1 receptor antagonists and their use in the treatment of fibrosis” (IDORSIA PHARMACEUTICALS LTD, priority 2018, dated 2025).

These compounds were tested against human LPA1 receptor (Homo sapiens (Human), UniProt Q92633) (assay: Beta-arrestin recruitment assay to determine IC50 values for human LPAR1). Details: antagonist mode, Tango EDG2-bla U2OS cells, LPA 18:1 500 nM final.
Assay type: cell-based
Description: Beta-Arrestin Recruitment Assay to Determine IC50 Values for Human LPAR1
The Tango™ EDG2-bla U2OS cells are obtained from Invitrogen. These cells contain the human LPA1 receptor cDNA linked to a TEV protease site and a Gal4-VP16 transcription factor integrated into the Tango™ GPCR-bla U2OS parental cell line. This parental cell line stably expresses a beta-arrestin/TEV protease fusion protein and the beta-lactamase (bla) reporter gene under the control of a UAS response element. Upon LPA (agonist) binding, LPA1 receptor gets activated, leading to arrestin-protease recruitment and proteolytic release of the transcription factor: The transcription factor then regulates transcription of a beta-lactamase reporter construct, which is measured upon addition of the live-cell substrate.
10′000 Tango™ EDG2-bla U2OS cells are seeded in a 384-well black with clear bottom plate in 30 μl Freestyle 293 Expression Medium (Invitrogen) and incubated for 20 h at 37° C., 5% CO2. […] IC50 is the concentration of antagonist inhibiting 50% of the maximal response.

Chain of human LPA1 receptor (Q92633 whole entry): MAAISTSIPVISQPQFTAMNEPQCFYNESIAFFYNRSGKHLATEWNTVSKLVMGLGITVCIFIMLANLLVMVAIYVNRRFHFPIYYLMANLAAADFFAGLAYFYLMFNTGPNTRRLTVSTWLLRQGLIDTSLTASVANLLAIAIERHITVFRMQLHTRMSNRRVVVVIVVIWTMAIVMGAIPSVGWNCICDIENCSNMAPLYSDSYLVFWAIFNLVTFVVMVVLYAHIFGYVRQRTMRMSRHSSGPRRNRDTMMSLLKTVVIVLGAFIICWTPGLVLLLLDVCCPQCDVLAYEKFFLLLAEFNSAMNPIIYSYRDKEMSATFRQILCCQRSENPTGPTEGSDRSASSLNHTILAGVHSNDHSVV

| Compound | IC50 |
| --- | --- |
| Cc1ccc(NC(=O)C2(c3ccccc3C(C)C)CN(S(=O)(=O)CCC(=O)NO)C2)c(OC(F)F)n1 [Ex 13-29, N-(2-(difluoromethoxy)-6-methylpyridin-3-yl)-1-((3-(hydroxyamino)-3-oxopropyl)sulfonyl)-3-(2-isopropylphenyl)azetidine-3-carboxamide] | 10 nM |
| 2-(2-(3-((2-(difluoromethoxy)-6-methylpyridin-3-yl)carbamoyl)-3-(2-isopropylphenyl)azetidin-1-yl)ethoxy)-2-methylpropanoic acid [Ex 40] | 29 nM |
| Cc1ccc(NC(=O)C2(c3ccccc3C(C)C)CN(C(=O)NCCC(C)(C)C(=O)O)C2)c(OC(F)F)n1 [Ex 17-19, 4-(3-((2-(difluoromethoxy)-6-methylpyridin-3-yl)carbamoyl)-3-(2-isopropylphenyl)azetidine-1-carboxamido)-2,2-dimethylbutanoic acid] | 7 nM |
| COC(=O)C1(CCCN2CC(C(=O)Nc3ccc(C)nc3OC(F)F)(c3ccccc3C(C)C)C2)CC1 [Ex 11-70, methyl 1-(3-(3-((2-(difluoromethoxy)-6-methylpyridin-3-yl)carbamoyl)-3-(2-isopropylphenyl)azetidin-1-yl)propyl)cyclopropane-1-carboxylate] | 69 nM |
| Cc1ccc(NC(=O)C2(c3ccccc3C(C)C)CN(C(=O)C3(CC(=O)O)COC3)C2)c(OC(F)F)n1 [Ex 12-99, 2-(3-(3-((2-(difluoromethoxy)-6-methylpyridin-3-yl)carbamoyl)-3-(2-isopropylphenyl)azetidine-1-carbonyl)oxetan-3-yl)acetic acid] | 16 nM |
| Cc1ccc(NC(=O)C2(c3ccccc3C(C)C)CN(C(=O)[C@H]3C[C@H]3C(=O)O)C2)c(OC(F)F)n1 [Ex 12-97, (1R,2S)-2-(3-((2-(difluoromethoxy)-6-methylpyridin-3-yl)carbamoyl)-3-(2-isopropylphenyl)azetidine-1-carbonyl)cyclopropane-1-carboxylic acid] | 13 nM |
| O=C(Nc1ncc(Cl)cc1OC(F)F)C1(c2ccccc2C2CCCC2)CNC1 [Ex 76, N-(5-chloro-3-(difluoromethoxy)pyridin-2-yl)-3-(2-cyclopentylphenyl)azetidine-3-carboxamide] | 19 nM |
| CCN(CC(=O)O)CC(=O)N1CC(C(=O)Nc2ccc(C)nc2OC(F)F)(c2ccccc2C(C)C)C1 [Ex 58, N-(2-(3-((2-(difluoromethoxy)-6-methylpyridin-3-yl)carbamoyl)-3-(2-isopropylphenyl)azetidin-1-yl)-2-oxoethyl)-N-ethylglycine] | 48 nM |
| Cc1ccc(NC(=O)C2(c3ccccc3C(C)C)CCN(C[C@@H](O)CO)CC2)c(OC(F)F)n1 [Ex 11-19, (R)-N-(2-(difluoromethoxy)-6-methylpyridin-3-yl)-1-(2,3-dihydroxypropyl)-4-(2-isopropylphenyl)piperidine-4-carboxamide] | 14 nM |
| COC(=O)COC(=O)N1CC(C(=O)Nc2ncc(C)cc2OC(F)F)(c2ccccc2C(C)C)C1 [Ex 83-1, 2-methoxy-2-oxoethyl 3-((3-(difluoromethoxy)-5-methylpyridin-2-yl)carbamoyl)-3-(2-isopropylphenyl)azetidine-1-carboxylate] | 74 nM |
| Cc1ccc(NC(=O)C2(c3ccccc3C(C)C)CN(c3ncncc3F)C2)c(OC(F)F)n1 [Ex 18-20, N-(2-(difluoromethoxy)-6-methylpyridin-3-yl)-1-(5-fluoropyrimidin-4-yl)-3-(2-isopropylphenyl)azetidine-3-carboxamide] | 2 nM |
| CCOC(=O)C[C@H](N)C(=O)N1CC(C(=O)Nc2ccc(C)nc2OC(F)F)(c2ccccc2C(C)C)C1 [Ex 12-100, ethyl (S)-3-amino-4-(3-((2-(difluoromethoxy)-6-methylpyridin-3-yl)carbamoyl)-3-(2-isopropylphenyl)azetidin-1-yl)-4-oxobutanoate] | 23 nM |
| Cc1ccc(NC(=O)C2(c3ccccc3C(C)C)CN(C(=O)CCOCC(=O)O)C2)c(OC(F)F)n1 [Ex 12-110, 2-(3-(3-((2-(difluoromethoxy)-6-methylpyridin-3-yl)carbamoyl)-3-(2-isopropylphenyl)azetidin-1-yl)-3-oxopropoxy)acetic acid] | 66 nM |
| COC(=O)CCC(=O)N1CC(C(=O)Nc2ccc(C)nc2OC(C)C)(c2ccccc2C(C)C)C1 [Ex 12-67, methyl 4-(3-((2-isopropoxy-6-methylpyridin-3-yl)carbamoyl)-3-(2-isopropylphenyl)azetidin-1-yl)-4-oxobutanoate] | 75 nM |
| CC(=O)NS(=O)(=O)N(C)CC(=O)N1CC(C(=O)Nc2ccc(C)nc2OC(F)F)(c2ccccc2C(C)C)C1 [Ex 16-5, 1-(N-(N-acetylsulfamoyl)-N-methylglycyl)-N-(2-(difluoromethoxy)-6-methylpyridin-3-yl)-3-(2-isopropylphenyl)azetidine-3-carboxamide] | 47 nM |
| Cc1ccc(NC(=O)C2(c3ccccc3C(C)C)CN(CCC3(C(=O)O)CC3)C2)c(OC(F)F)n1 [Ex 11-72, 1-(2-(3-((2-(difluoromethoxy)-6-methylpyridin-3-yl)carbamoyl)-3-(2-isopropylphenyl)azetidin-1-yl)ethyl)cyclopropane-1-carboxylic acid] | 52 nM |
| Cc1ccc(NC(=O)C2(c3ccccc3C(C)C)CN(C(=O)C3(C(=O)O)CNC3)C2)c(OC(F)F)n1 [Ex 12-114, 3-(3-((2-(difluoromethoxy)-6-methylpyridin-3-yl)carbamoyl)-3-(2-isopropylphenyl)azetidine-1-carbonyl)azetidine-3-carboxylic acid] | 2680 nM |
| Cc1ccc(NC(=O)C2(c3ccccc3C(C)C)CN(Cc3c[nH]nc3C(=O)O)C2)c(OC(F)F)n1 [Ex 11-38, 4-((3-((2-(difluoromethoxy)-6-methylpyridin-3-yl)carbamoyl)-3-(2-isopropylphenyl)azetidin-1-yl)methyl)-1H-pyrazole-3-carboxylic acid] | 270 nM |
| Cc1ccc(NC(=O)C2(c3ccccc3C(C)C)CN(CCC3(O)CC3)C2)c(OC(F)F)n1 [Ex 11-10, N-(2-(difluoromethoxy)-6-methylpyridin-3-yl)-1-(2-(1-hydroxycyclopropyl)ethyl)-3-(2-isopropylphenyl)azetidine-3-carboxamide] | 12 nM |
| Cc1ccc(NC(=O)C2(c3ccccc3C(C)C)CN(C(=O)NCCC(=O)O)C2)c(OC(F)F)n1 [Ex 17-5, 3-(3-((2-(difluoromethoxy)-6-methylpyridin-3-yl)carbamoyl)-3-(2-isopropylphenyl)azetidine-1-carboxamido)propanoic acid] | 41 nM |
| Cc1ccc(NC(=O)C2(c3ccccc3C(C)C)CN(C(=O)C[C@@H](O)CC(=O)O)C2)c(OC(F)F)n1 [Ex 12-105, (R)-5-(3-((2-(difluoromethoxy)-6-methylpyridin-3-yl)carbamoyl)-3-(2-isopropylphenyl)azetidin-1-yl)-3-hydroxy-5-oxopentanoic acid] | 54 nM |
| Cc1ccc(NC(=O)C2(c3ccccc3C(C)C)CN(C(=O)[C@@H]3CCC[C@H](C(=O)O)C3)C2)c(OC(F)F)n1 [Ex 51, (1S,3R)-3-(3-((2-(difluoromethoxy)-6-methylpyridin-3-yl)carbamoyl)-3-(2-isopropylphenyl)azetidine-1-carbonyl)cyclohexane-1-carboxylic acid] | 80 nM |
| Cc1ccc(NC(=O)C2(c3ccccc3C(C)C)CN(C(=O)CN(C)S(N)(=O)=O)C2)c(OC(F)F)n1 [Ex 12-8, N-(2-(difluoromethoxy)-6-methylpyridin-3-yl)-3-(2-isopropylphenyl)-1-(N-methyl-N-sulfamoylglycyl)azetidine-3-carboxamide] | 10 nM |
| Cc1ccc(NC(=O)C2(c3ccccc3C(C)C)CCN(C(=O)Cn3cnnn3)CC2)c(OC(F)F)n1 [Ex 12-20, 1-(2-(1H-tetrazol-1-yl)acetyl)-N-(2-(difluoromethoxy)-6-methylpyridin-3-yl)-4-(2-isopropylphenyl)piperidine-4-carboxamide] | 2 nM |
| CCOC(=O)CCN1CC(C(=O)Nc2ccc(C)nc2OC(F)F)(c2ccccc2C(C)C)C1 [Ex 11-13, ethyl 3-(3-((2-(difluoromethoxy)-6-methylpyridin-3-yl)carbamoyl)-3-(2-isopropylphenyl)azetidin-1-yl)propanoate] | 16 nM |
| Cc1ccc(NC(=O)C2(c3ccccc3C(C)C)CN(C(=O)[C@H](O)[C@@H](O)C(=O)O)C2)c(OC(F)F)n1 [Ex 12-118, (2R,3R)-4-(3-((2-(difluoromethoxy)-6-methylpyridin-3-yl)carbamoyl)-3-(2-isopropylphenyl)azetidin-1-yl)-2,3-dihydroxy-4-oxobutanoic acid] | 30 nM |
| Cc1ccc(NC(=O)C2(c3ccccc3C(C)C)CN(C(=O)CC(F)(F)C(=O)O)C2)c(OC(F)F)n1 [Ex 12-112, 4-(3-((2-(difluoromethoxy)-6-methylpyridin-3-yl)carbamoyl)-3-(2-isopropylphenyl)azetidin-1-yl)-2,2-difluoro-4-oxobutanoic acid] | 39 nM |
| Cc1ccc(NC(=O)C2(c3ccccc3C(C)C)CN(CCC(C)(C)O)C2)c(OC(F)F)n1 [Ex 11-9, N-(2-(difluoromethoxy)-6-methylpyridin-3-yl)-1-(3-hydroxy-3-methylbutyl)-3-(2-isopropylphenyl)azetidine-3-carboxamide] | 14 nM |
| Cc1ccc(NC(=O)C2(c3ccccc3C(C)C)CN(C(=O)c3cc(O)no3)C2)c(OC(F)F)n1 [Ex 12-16, N-(2-(difluoromethoxy)-6-methylpyridin-3-yl)-1-(3-hydroxyisoxazole-5-carbonyl)-3-(2-isopropylphenyl)azetidine-3-carboxamide] | 9 nM |
